Results as given in patent US12281122B1, “PI3K inhibitors” (Cogent Biosciences, Inc., priority 2023, dated 2025).

Columns and labels:
[1] = system: SKBR3 (PI3Kα-Wild Type) cell line; experiment: HTRF phospho-AKT(S473) cell assay in SKBR3 cells; assay type: cell-based, human; conditions: Homo sapiens, SK-BR-3; HTRF phospho-AKT(S473), SKBR3 (PI3Kα-Wild Type) cells, 2 hours compound incubation, PDGF-BB stimulated
Procedure, shortened: (§1)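 pAKT(S473) in lysates read by HTRF after a 2 h, 37 °C compound exposure (12-point 1:3 series, max 0.5% DMSO). SKBR3 (wild type, top 10 μM) received 70 ng/ml PDGF-BB during the final 15 min; T47D (H1047R, top 5 μM) was unstimulated. IC50 values derived from the dose-response.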

[2] = system: T47D (PI3Kα-H1047R) cell line; experiment: HTRF phospho-AKT(S473) cell assay in T47D cells; assay type: cell-based, human; conditions: Homo sapiens; HTRF phospho-AKT(S473), T47D (PI3Kα-H1047R) cells, 2 hours compound incubation
Procedure, shortened: as §1

| IC50 [1] [µM] | IC50 [2] [µM] | Structure (SMILES) |
| --- | --- | --- |
| ≥ 5 | 0.25 to 0.5 | Cc1cc([C@@H](C)Nc2ccc(Cl)nc2C(=O)NS(C)(=O)=O)c2nc(N3C[C@@H]4C[C@H]3CN4c3ccccn3)n(C)c(=O)c2c1 [Compound 604, 6-chloro-3-(((R)-1-(3,6-dimethyl-4-oxo-2-((1S,4S)-5-(pyridin-2-yl)-2,5-diazabicyclo [2.2.1]heptan-2-yl)-3,4-dihydroquinazolin-8-yl)ethyl)amino)-N-(methylsulfonyl) picolinamide] |
| ≥ 5 | 0.25 to 0.5 | Cc1cc([C@@H](C)Nc2ccc(Cl)nc2C(=O)NS(C)(=O)=O)c2nc(N3C[C@H]4C[C@@H]3CN4c3nc(C)ncc3F)n(C)c(=O)c2c1 [Compound 605, 6-chloro-3-(((R)-1-(2-((1R,4R)-5-(5-fluoro-2-methylpyrimidin-4-yl)-2,5-diazabicyclo [2.2.1]heptan-2-yl)-3,6-dimethyl-4-oxo-3,4-dihydroquinazolin-8-yl)ethyl)amino)-N-(methylsulfonyl) picolinamide] |
| ≥ 5 | 0.25 to 0.5 | Cc1cc([C@@H](C)Nc2ccc(Cl)nc2C(=O)NS(C)(=O)=O)c2nc(N3C[C@@H]4[C@H](C3)[C@H]4c3cnc(C)nc3)n(C3CC3)c(=O)c2c1 [Compound 606, 6-chloro-3-(((R)-1-(3-cyclopropyl-6-methyl-2-((1R,5S,6S)-6-(2-methylpyrimidin-5-yl)-3-azabicyclo[3.1.0]hexan-3-yl)-4-oxo-3,4-dihydroquinazolin-8-yl)ethyl)amino)-N-(methylsulfonyl) picolinamide] |
| 1 to 5 | < 0.25 | Cc1cc([C@@H](C)Nc2ccc(Cl)nc2C(=O)NS(C)(=O)=O)c2nc(N3CCC(c4cnc(C)nc4)CC3)n(C3CC3)c(=O)c2c1 [Compound 607, (R)-6-chloro-3-((1-(3-cyclopropyl-6-methyl-2-(4-(2-methylpyrimidin-5-yl)piperidin-1-yl)-4-oxo-3,4-dihydroquinazolin-8-yl)ethyl)amino)-N-(methylsulfonyl) picolinamide] |
| ≥ 5 | 0.5 to 1 | Cc1cc([C@@H](C)Nc2ccc(Cl)nc2C(=O)NS(C)(=O)=O)c2nc(N3C[C@@H]4C[C@H]3CN4c3cnc(C)c(F)c3)n(C)c(=O)c2c1 [Compound 608, 6-chloro-3-(((R)-1-(2-((1S,4S)-5-(5-fluoro-6-methylpyridin-3-yl)-2,5-diazabicyclo [2.2.1]heptan-2-yl)-3,6-dimethyl-4-oxo-3,4-dihydroquinazolin-8-yl)ethyl)amino)-N-(methylsulfonyl) picolinamide] |
| ≥ 5 | 0.5 to 1 | Cc1ccc(N2C[C@H]3C[C@@H]2CN3c2nc3c([C@@H](C)Nc4ccc(Cl)nc4C(=O)NS(C)(=O)=O)cc(C)cc3c(=O)n2C)nc1 [Compound 609, 6-chloro-3-(((R)-1-(3,6-dimethyl-2-((1R,4R)-5-(5-methylpyridin-2-yl)-2,5-diazabicyclo [2.2.1]heptan-2-yl)-4-oxo-3,4-dihydroquinazolin-8-yl)ethyl)amino)-N-(methylsulfonyl) picolinamide] |
| ≥ 5 | < 0.25 | COc1ccc([C@H]2[C@@H]3CN(c4nc5c([C@@H](C)Nc6ccc(Cl)nc6C(=O)NS(C)(=O)=O)cc(C)cc5c(=O)n4C)C[C@@H]32)cn1 [Compound 610, 6-chloro-3-(((R)-1-(2-((1R,5S,6S)-6-(6-methoxypyridin-3-yl)-3-azabicyclo[3.1.0]hexan-3-yl)-3,6-dimethyl-4-oxo-3,4-dihydroquinazolin-8-yl)ethyl)amino)-N-(methylsulfonyl) picolinamide] |
| ≥ 5 | 0.25 to 0.5 | COc1cc(O[C@H]2CCN(c3nc4c([C@@H](C)Nc5ccc(Cl)nc5C(=O)NS(C)(=O)=O)cc(C)cc4c(=O)n3C)C2)c(F)cn1 [Compound 611, 6-chloro-3-(((R)-1-(2-((S)-3-((5-fluoro-2-methoxypyridin-4-yl)oxy)pyrrolidin-1-yl)-3,6-dimethyl-4-oxo-3,4-dihydroquinazolin-8-yl)ethyl)amino)-N-(methylsulfonyl) picolinamide] |
| 1 to 5 | 0.25 to 0.5 | Cc1cc([C@@H](C)Nc2ccc(Cl)nc2C(=O)NS(C)(=O)=O)c2nc(N3Cc4cnc(C)nc4C3)n(C)c(=O)c2c1 [Compound 612, (R)-6-chloro-3-((1-(3,6-dimethyl-2-(2-methyl-5,7-dihydro-6H-pyrrolo[3,4-d]pyrimidin-6-yl)-4-oxo-3,4-dihydroquinazolin-8-yl)ethyl)amino)-N-(methylsulfonyl) picolinamide] |
| 1 to 5 | < 0.25 | Cc1cnc(O[C@@H]2CCN(c3nc4c([C@@H](C)Nc5ccc(Cl)nc5C(=O)NS(C)(=O)=O)cc(C)cc4c(=O)n3C)C2)nc1 [Compound 613, 6-chloro-3-(((R)-1-(3,6-dimethyl-2-((R)-3-((5-methylpyrimidin-2-yl)oxy)pyrrolidin-1-yl)-4-oxo-3,4-dihydroquinazolin-8-yl)ethyl)amino)-N-(methylsulfonyl) picolinamide] |
| ≥ 5 | < 0.25 | CCn1c(N2CCC(c3nc(C)n(C)n3)CC2)nc2c([C@@H](C)Nc3ccc(Cl)nc3C(=O)NS(C)(=O)=O)cc(C)cc2c1=O [Compound 616, (R)-6-chloro-3-((1-(2-(4-(1,5-dimethyl-1H-1,2,4-triazol-3-yl)piperidin-1-yl)-3-ethyl-6-methyl-4-oxo-3,4-dihydroquinazolin-8-yl)ethyl)amino)-N-(methylsulfonyl) picolinamide] |
| ≥ 5 | 0.25 to 0.5 | Cc1cc([C@@H](C)Nc2ccc(Cl)nc2C(=O)NS(C)(=O)=O)c2nc(N3CCN(c4cc(C)nc(C)n4)CC3)n(C)c(=O)c2c1 [Compound 617, (R)-6-chloro-3-((1-(2-(4-(2,6-dimethylpyrimidin-4-yl)piperazin-1-yl)-3,6-dimethyl-4-oxo-3,4-dihydroquinazolin-8-yl)ethyl)amino)-N-(methylsulfonyl) picolinamide] |
| 1 to 5 | < 0.25 | Cc1cc([C@@H](C)Nc2ccc(Cl)nc2C(=O)NS(C)(=O)=O)c2nc(N3C[C@@H]4[C@H](C3)[C@H]4c3cc4cccnn4n3)n(C)c(=O)c2c1 [Compound 620, 6-chloro-3-(((R)-1-(3,6-dimethyl-4-oxo-2-((1R,5S,6R)-6-(pyrazolo[1,5-b]pyridazin-2-yl)-3-azabicyclo[3.1.0]hexan-3-yl)-3,4-dihydroquinazolin-8-yl)ethyl)amino)-N-(methylsulfonyl) picolinamide] |
| 1 to 5 | < 0.25 | CCn1c(N2C[C@@H]3[C@H](C2)[C@H]3c2cn(C)nn2)nc2c([C@@H](C)Nc3ccc(Cl)nc3C(=O)NS(C)(=O)=O)cc(C)cc2c1=O [Compound 622, 6-chloro-3-(((R)-1-(3-ethyl-6-methyl-2-((1R,5S,6R)-6-(1-methyl-1H-1,2,3-triazol-4-yl)-3-azabicyclo[3.1.0]hexan-3-yl)-4-oxo-3,4-dihydroquinazolin-8-yl)ethyl)amino)-N-(methylsulfonyl) picolinamide] |
| ≥ 5 | 0.25 to 0.5 | Cc1cc([C@@H](C)Nc2ccc(Cl)nc2C(=O)NS(C)(=O)=O)c2nc(N3C[C@@H]4C[C@H]3CN4c3ccc(F)cn3)n(C)c(=O)c2c1 [Compound 623, 6-chloro-3-(((R)-1-(2-((1S,4S)-5-(5-fluoropyridin-2-yl)-2,5-diazabicyclo [2.2.1]heptan-2-yl)-3,6-dimethyl-4-oxo-3,4-dihydroquinazolin-8-yl)ethyl)amino)-N-(methylsulfonyl) picolinamide] |
